From ChEMBL document CHEMBL4354805, “Discovery of MK-8719, a Potent O-GlcNAcase Inhibitor as a Potential Treatment for Tauopathies” (J Med Chem, 2019)

Columns and labels:
[1] = Half life in Wistar Han rat at 2 mg/kg, iv; format: ADME, organism-based; settings: in vivo
[2] = biological target: T1, Beta-hexosaminidase subunit beta (Homo sapiens, UniProt P07686); assay: Inhibition of human beta hexosaminidase assessed as inhibitory constant using 4-methylumbelliferyl N-acetyl-beta-D-glucosaminide dihydrate as substrate measured every 60 sec for 45 mins by fluorescence spectrophotometry
T1 sequence (P07686 whole entry): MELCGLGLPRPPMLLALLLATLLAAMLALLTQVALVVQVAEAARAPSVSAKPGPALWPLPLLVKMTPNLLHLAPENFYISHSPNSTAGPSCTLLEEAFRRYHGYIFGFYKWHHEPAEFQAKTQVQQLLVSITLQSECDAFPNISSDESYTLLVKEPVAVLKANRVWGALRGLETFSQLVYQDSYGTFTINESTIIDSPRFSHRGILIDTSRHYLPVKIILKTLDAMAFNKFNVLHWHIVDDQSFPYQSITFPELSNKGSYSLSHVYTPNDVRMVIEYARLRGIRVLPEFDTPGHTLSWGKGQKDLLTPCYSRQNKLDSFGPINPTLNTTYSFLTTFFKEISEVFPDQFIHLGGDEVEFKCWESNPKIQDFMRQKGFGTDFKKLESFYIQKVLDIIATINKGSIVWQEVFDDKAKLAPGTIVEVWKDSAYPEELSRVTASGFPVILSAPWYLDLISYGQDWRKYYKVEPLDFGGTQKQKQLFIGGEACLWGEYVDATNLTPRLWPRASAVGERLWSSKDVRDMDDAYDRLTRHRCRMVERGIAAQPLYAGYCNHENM

Rattus norvegicus [3] = assay: Elevation of O-protein in rat brain at 3 mg/kg, po measured after 8 hrs relative to control; format: functional
MDR1 = assay: Apparent permeability in pig LLC-PK1 cells transfected with MDR1; format: ADME, cell-based, Sus scrofa
Rattus norvegicus [4] = assay: Elevation of O-protein in rat brain at 3 mg/kg, po measured after 24 hrs relative to control; format: functional
[5] = Oral bioavailability in Wistar Han rat at 3 mg/kg; format: ADME, organism-based; settings: in vivo
[6] = Drug uptake in rat brain at 3 mg/kg, po measured after 24 hrs; format: ADME, organism-based; settings: in vivo
[7] = AUCN in Wistar Han rat at 3 mg/kg, po; format: ADME, organism-based; settings: in vivo
[8] = Ratio of drug uptake in rat brain to plasma at 3 mg/kg, po measured after 24 hrs; format: ADME, organism-based; settings: read-out: BPR
[9] = Drug uptake in rat brain at 3 mg/kg, po measured after 8 hrs; format: ADME, organism-based; settings: in vivo
[10] = Ratio of drug uptake in rat brain to plasma at 3 mg/kg, po measured after 8 hrs; format: ADME, organism-based; settings: read-out: BPR
[11] = Volume of distribution at steady state in Wistar Han rat at 2 mg/kg, iv or 3 mg/kg, po; format: ADME, organism-based; settings: in vivo, read-out: Vdss
Protein O-GlcNAcase [12] = biological target: T2, Protein O-GlcNAcase (Rattus norvegicus, UniProt Q8VIJ5); assay: Inhibition of OGA in rat PC12 cells assessed as OGlcNAcylated protein level incubated for 24 hrs by ELISA; format: cell-based
T2 sequence (Q8VIJ5 whole entry): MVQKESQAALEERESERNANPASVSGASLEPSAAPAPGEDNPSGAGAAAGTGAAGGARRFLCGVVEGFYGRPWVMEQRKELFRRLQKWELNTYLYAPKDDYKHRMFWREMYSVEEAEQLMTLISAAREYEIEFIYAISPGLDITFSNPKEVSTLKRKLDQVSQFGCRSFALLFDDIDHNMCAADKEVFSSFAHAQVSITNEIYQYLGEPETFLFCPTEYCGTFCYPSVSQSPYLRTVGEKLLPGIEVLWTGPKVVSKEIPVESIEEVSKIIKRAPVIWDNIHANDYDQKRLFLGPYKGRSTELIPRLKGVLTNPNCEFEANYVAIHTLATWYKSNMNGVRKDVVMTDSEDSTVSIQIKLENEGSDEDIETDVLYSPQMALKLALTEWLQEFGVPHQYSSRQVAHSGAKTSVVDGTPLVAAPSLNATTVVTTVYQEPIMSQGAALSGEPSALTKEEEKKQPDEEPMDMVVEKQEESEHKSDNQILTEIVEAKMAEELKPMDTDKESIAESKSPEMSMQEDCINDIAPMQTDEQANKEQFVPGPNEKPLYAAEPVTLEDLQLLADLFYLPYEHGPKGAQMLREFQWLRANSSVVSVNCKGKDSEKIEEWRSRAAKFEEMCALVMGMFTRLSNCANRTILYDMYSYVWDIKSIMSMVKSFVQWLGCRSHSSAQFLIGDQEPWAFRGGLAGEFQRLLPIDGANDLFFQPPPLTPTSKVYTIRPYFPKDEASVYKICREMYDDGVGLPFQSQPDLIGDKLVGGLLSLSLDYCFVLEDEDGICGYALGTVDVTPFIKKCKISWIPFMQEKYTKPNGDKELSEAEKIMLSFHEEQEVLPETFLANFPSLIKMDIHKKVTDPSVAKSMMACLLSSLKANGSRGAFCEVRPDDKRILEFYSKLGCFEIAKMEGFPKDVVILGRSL

[13] = Clearance in Wistar Han rat at 2 mg/kg, iv; format: ADME, organism-based; settings: in vivo
[14] = Fraction unbound in human plasma at 2.5 uM by equilibrium dialysis; format: ADME, cell-free
[15] = Fraction unbound in Wistar Han rat plasma at 2.5 uM by equilibrium dialysis; format: ADME, cell-free
Protein O-GlcNAcase [16] = biological target: T3, Protein O-GlcNAcase (Homo sapiens, UniProt O60502); assay: Inhibition of recombinant human OGA
T3 sequence (O60502 whole entry): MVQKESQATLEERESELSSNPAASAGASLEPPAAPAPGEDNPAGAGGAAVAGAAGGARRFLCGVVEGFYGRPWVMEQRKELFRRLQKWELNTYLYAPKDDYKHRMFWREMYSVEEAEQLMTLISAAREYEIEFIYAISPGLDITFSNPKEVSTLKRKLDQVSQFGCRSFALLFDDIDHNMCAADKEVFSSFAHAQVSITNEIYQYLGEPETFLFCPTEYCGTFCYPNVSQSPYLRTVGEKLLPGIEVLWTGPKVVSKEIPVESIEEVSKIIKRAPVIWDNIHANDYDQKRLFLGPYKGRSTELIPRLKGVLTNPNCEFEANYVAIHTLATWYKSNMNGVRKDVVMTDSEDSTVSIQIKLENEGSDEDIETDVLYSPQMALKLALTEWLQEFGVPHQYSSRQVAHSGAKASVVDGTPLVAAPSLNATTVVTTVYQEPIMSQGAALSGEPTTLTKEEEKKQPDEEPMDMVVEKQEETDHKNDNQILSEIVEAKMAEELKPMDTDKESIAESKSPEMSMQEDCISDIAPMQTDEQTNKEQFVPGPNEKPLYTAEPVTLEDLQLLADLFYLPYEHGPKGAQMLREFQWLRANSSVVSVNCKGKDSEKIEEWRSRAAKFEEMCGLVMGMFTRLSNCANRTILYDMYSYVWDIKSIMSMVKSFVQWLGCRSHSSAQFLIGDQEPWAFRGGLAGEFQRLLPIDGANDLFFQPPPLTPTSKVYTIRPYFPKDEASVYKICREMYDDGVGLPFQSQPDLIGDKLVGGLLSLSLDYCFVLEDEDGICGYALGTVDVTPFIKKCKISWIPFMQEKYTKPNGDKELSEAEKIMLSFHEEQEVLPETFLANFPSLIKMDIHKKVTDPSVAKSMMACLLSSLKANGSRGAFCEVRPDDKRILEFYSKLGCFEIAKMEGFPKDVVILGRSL

[17] = biological target: Voltage-gated inwardly rectifying potassium channel KCNH2 (Homo sapiens, UniProt Q12809); assay: Displacement of MK-0499 from human ERG
Sequence of Voltage-gated inwardly rectifying potassium channel KCNH2 (Q12809 whole entry): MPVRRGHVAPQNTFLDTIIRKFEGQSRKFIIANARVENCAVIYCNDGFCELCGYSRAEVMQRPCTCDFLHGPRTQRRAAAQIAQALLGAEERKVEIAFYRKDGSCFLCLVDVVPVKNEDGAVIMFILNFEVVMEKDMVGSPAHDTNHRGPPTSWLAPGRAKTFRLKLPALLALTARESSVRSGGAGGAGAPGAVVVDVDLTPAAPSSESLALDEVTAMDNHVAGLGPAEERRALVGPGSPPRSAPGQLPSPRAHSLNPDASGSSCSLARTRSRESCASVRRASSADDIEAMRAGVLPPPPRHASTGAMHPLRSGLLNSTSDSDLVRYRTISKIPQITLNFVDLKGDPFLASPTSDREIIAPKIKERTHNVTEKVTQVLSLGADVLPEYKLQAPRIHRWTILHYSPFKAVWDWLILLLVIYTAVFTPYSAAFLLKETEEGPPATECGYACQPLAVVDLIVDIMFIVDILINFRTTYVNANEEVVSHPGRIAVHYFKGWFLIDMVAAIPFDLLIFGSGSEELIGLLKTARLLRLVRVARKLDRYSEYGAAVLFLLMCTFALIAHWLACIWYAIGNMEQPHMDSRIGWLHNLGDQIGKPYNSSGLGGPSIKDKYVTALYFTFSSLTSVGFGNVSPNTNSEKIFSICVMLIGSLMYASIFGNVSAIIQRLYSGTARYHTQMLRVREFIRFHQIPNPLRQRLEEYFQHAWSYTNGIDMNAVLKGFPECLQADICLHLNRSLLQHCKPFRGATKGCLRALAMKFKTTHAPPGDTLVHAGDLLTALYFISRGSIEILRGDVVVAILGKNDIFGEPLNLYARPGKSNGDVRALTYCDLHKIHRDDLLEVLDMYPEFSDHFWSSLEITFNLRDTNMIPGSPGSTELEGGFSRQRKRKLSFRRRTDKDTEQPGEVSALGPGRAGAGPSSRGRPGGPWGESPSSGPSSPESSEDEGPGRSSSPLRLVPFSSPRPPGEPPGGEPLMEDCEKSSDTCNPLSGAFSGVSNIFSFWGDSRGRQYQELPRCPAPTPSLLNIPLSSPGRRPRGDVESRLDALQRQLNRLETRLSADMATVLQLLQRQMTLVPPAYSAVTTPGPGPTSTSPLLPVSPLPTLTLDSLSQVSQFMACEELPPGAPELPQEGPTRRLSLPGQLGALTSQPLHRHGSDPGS

[18] = biological target: Sodium channel protein type 5 subunit alpha (Homo sapiens, UniProt Q14524); assay: Inhibition of Nav1.5 (unknown origin)
Cytochrome P450 3A4 = Cytochrome P450 3A4 (Homo sapiens, UniProt P08684); assay: Inhibition of CYP3A4 (unknown origin); format: ADME
Sequence of Cytochrome P450 3A4 (P08684 whole entry): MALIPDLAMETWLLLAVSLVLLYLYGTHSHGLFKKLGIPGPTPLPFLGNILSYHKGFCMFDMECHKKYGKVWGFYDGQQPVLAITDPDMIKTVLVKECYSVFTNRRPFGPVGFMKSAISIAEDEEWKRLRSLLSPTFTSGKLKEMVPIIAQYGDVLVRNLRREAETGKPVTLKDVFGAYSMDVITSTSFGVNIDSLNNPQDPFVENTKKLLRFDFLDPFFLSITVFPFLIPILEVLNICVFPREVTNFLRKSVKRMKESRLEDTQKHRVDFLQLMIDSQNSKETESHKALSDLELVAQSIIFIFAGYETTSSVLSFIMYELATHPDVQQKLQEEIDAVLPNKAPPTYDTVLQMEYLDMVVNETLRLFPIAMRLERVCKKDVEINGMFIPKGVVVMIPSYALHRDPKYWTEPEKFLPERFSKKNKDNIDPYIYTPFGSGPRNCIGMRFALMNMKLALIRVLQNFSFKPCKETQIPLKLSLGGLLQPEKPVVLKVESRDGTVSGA

[19] = biological target: Voltage-dependent L-type calcium channel subunit alpha-1C (Homo sapiens, UniProt Q13936); assay: Inhibition of Cav1.2 (unknown origin)
Sequence of Voltage-dependent L-type calcium channel subunit alpha-1C (Q13936 whole entry): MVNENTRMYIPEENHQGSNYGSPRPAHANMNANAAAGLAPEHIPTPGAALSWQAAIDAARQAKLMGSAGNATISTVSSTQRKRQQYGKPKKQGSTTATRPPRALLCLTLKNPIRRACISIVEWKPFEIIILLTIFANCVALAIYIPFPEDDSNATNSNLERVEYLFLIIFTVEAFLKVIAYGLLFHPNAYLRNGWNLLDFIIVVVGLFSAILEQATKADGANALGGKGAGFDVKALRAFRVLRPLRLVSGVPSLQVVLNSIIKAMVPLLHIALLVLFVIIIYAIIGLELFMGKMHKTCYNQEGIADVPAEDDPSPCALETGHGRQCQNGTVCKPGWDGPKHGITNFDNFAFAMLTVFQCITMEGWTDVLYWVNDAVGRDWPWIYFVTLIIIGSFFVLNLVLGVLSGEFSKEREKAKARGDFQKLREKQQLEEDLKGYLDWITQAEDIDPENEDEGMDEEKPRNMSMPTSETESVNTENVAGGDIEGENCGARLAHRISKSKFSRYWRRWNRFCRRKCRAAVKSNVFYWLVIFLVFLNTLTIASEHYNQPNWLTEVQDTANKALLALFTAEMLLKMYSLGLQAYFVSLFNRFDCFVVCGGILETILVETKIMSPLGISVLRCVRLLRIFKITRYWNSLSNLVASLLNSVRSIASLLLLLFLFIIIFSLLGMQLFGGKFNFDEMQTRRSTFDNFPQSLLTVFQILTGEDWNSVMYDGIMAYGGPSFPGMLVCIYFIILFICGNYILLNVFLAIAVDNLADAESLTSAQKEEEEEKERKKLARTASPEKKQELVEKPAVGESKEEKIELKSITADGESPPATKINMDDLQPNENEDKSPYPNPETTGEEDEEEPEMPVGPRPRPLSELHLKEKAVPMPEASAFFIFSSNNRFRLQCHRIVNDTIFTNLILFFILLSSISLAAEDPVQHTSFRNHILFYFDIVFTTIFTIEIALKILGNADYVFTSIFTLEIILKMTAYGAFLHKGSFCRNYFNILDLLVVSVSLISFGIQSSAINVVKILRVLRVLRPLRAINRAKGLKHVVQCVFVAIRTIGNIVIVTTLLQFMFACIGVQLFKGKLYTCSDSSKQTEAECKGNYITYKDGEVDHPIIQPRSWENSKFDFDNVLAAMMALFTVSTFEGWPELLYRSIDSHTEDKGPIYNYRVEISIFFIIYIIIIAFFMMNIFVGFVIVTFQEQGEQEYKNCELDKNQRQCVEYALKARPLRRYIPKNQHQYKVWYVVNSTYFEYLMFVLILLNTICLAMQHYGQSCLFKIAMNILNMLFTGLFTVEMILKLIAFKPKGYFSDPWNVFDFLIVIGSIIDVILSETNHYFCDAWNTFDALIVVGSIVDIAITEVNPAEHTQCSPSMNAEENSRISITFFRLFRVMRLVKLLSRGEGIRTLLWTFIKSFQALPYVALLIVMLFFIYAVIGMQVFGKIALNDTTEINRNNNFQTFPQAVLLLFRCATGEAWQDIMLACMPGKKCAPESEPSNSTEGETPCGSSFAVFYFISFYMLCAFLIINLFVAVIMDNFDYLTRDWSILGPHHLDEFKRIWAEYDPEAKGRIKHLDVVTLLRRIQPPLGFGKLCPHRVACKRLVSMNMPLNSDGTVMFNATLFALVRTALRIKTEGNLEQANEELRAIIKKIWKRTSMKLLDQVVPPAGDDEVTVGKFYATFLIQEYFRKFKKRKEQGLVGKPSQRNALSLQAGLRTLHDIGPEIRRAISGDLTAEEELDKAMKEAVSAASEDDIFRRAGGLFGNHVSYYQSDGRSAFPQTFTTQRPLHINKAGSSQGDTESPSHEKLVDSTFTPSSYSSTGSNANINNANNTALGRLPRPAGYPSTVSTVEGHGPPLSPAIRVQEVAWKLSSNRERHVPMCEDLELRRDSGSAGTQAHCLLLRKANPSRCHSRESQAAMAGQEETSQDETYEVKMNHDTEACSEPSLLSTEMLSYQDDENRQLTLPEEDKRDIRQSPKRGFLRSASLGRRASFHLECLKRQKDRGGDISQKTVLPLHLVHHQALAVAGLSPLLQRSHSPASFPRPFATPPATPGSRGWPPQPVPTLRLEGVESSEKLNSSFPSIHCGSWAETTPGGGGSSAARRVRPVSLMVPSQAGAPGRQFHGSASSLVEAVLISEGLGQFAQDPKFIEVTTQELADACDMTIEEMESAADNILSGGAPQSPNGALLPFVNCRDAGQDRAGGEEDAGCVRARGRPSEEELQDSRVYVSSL

Cytochrome P450 2C9 = Cytochrome P450 2C9 (Homo sapiens, UniProt P11712); assay: Inhibition of CYP2C9 (unknown origin); format: ADME
Sequence of Cytochrome P450 2C9 (P11712 whole entry): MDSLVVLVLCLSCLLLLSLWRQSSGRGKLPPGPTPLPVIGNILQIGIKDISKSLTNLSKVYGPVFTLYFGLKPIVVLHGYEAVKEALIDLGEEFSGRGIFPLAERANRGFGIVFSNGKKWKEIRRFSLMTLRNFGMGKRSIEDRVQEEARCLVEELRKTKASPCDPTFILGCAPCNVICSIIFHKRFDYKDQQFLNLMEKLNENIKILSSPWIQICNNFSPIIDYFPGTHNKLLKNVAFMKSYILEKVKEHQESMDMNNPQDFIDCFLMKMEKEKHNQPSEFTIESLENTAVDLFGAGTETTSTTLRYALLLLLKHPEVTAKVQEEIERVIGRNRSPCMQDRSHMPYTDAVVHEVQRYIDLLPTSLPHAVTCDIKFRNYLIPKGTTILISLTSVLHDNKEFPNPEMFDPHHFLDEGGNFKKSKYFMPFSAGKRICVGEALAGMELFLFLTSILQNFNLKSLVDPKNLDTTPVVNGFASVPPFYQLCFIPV

Cytochrome P450 2D6 = Cytochrome P450 2D6 (Homo sapiens, UniProt P10635); assay: Inhibition of CYP2D6 (unknown origin); format: ADME
Sequence of Cytochrome P450 2D6 (P10635 whole entry): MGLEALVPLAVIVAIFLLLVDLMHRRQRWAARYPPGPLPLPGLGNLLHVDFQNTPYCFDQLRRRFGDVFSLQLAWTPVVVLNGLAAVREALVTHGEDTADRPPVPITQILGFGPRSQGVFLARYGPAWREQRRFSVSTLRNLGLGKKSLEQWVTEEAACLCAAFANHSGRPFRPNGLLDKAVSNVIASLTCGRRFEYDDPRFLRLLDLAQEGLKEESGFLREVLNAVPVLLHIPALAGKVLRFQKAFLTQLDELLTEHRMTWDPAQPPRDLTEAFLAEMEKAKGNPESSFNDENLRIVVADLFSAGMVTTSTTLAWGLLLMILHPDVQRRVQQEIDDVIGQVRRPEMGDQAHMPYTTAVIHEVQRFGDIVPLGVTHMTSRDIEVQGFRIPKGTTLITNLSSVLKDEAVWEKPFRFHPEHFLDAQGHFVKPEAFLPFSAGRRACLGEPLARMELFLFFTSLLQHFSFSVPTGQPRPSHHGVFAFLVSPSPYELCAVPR

[20] = biological target: T4, Nuclear receptor subfamily 1 group I member 2 (Homo sapiens, UniProt O75469); assay: Activation of PXR (unknown origin) assessed as CYP3A4 induction
T4 sequence (O75469 whole entry): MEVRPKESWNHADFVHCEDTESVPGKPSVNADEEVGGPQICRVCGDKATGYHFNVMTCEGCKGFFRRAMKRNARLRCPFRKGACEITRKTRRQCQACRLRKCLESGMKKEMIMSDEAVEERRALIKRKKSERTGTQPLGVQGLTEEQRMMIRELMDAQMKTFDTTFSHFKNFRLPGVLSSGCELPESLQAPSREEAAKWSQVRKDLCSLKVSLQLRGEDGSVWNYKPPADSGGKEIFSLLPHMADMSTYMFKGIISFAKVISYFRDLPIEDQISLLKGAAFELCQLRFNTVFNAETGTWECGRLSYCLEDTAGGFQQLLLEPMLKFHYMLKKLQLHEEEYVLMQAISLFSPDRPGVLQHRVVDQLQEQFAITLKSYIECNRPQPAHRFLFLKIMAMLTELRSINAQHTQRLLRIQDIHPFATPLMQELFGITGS

[21] = Tmax in rat brain at 10 mg/kg, po measured upto 24 hrs; format: ADME, organism-based
[22] = AUC (0 to 24 hrs) in rat brain at 10 mg/kg, po measured upto 24 hrs; format: ADME, organism-based; set-up: dose 10 mg/kg, time < 24 hr, route oral; settings: in vivo
Rattus norvegicus [23] = assay: Increase in O-protein AUC in rat brain at 10 mg/kg, po measured upto 24 hrs; format: ADME, organism-based; settings: in vivo
Rattus norvegicus [24] = assay: Elevation of O-protein in rat brain at 10 mg/kg, po measured after 24 hrs; format: functional
[25] = Half life in Wistar Han rat at 1 mg/kg, iv; format: ADME, organism-based; settings: in vivo
[26] = Volume of distribution at steady state in Wistar Han rat at 1 mg/kg, iv or 3 mg/kg, po; format: ADME, organism-based; settings: in vivo, read-out: Vdss
[27] = Clearance in Wistar Han rat at 1 mg/kg, iv; format: ADME, organism-based; settings: in vivo

| SMILES | half-life [1] [h] | Ki [2] [nM] | fold change (FC) (Rattus norvegicus [3]) | Papp (MDR1) [×10⁻⁶ cm/s] | fold change (FC) (Rattus norvegicus [4]) | bioavailability [5] [%] | Drug uptake [6] [nmol/g] | AUC/dose [7] [µM·kg·h/mg] | Kp at 24 h [8] | Drug uptake [9] [nmol/g] | Kp at 8 h [10] | Vd [11] [L/kg] | EC50 (Protein O-GlcNAcase [12]) [nM] | clearance [13] [mL/min/kg] | fraction unbound at 2.5 µM [14] | fraction unbound at 2.5 µM [15] | Ki (Protein O-GlcNAcase [16]) [nM] | Tmax [21] [h] | AUC [22] [nM·h/g] | fold change (FC) (Rattus norvegicus [23]) | other results |
| --- | --- | --- | --- | --- | --- | --- | --- | --- | --- | --- | --- | --- | --- | --- | --- | --- | --- | --- | --- | --- | --- |
| CNC1=N[C@@H]2[C@@H](O)[C@H](O)[C@@H](CF)O[C@@H]2S1 | 1.71 | 790 | 2.44 | 5.3 | 1.65 | 132 | 0.025 | 3.36 | ≥ 7.9 | 0.068 | 0.6 | 1.79 | 34.4 | 27.8 | 0.96 | 0.88 | 0.55 |  |  |  |  |
| CCNC1=N[C@@H]2[C@@H](O)[C@H](O)[C@@H](CF)O[C@@H]2S1 | 2.39 |  | 1.84 | 6.1 | 1.74 | 102 | 0.047 | 1.77 | ≥ 18.7 | 0.228 | 1.49 | 3.8 | 176 | 37.4 | 0.87 | 0.98 | 20 |  |  |  | IC50 [17]: > 30000 nM; IC50 [18]: > 30000 nM; IC50 (Cytochrome P450 3A4): > 50000 nM; IC50 [19]: > 30000 nM; IC50 (Cytochrome P450 2C9): > 50000 nM; IC50 (Cytochrome P450 2D6): > 50000 nM; EC50 [20]: > 30000 nM |
| CNC1=N[C@@H]2C[C@H](O)[C@@H](C(F)F)O[C@@H]2S1 | 1.66 | > 10000 | 1.8 | 24 |  | 74.7 |  | 1.9 |  | 0.289 | 2.22 | 2.23 |  | 30.4 | > 0.99 | 0.88 |  | 8 | 53.87 | 19.68 | fold change (FC) (Rattus norvegicus [24]): 2.69 |
| CN(C)C1=N[C@@H]2[C@@H](O)[C@H](O)[C@@H](C(F)F)O[C@@H]2S1 | 3.81 | 3900 | 2.53 | 14 | 2.57 | 49.7 | 0.049 | 0.43 | 3.03 | 0.147 | 1.56 | 10.3 | 31.2 | 70.5 | > 0.99 | 0.95 | 2.4 | 12 | 4.89 | 34.18 | fold change (FC) (Rattus norvegicus [24]): 2.83 |
| CNC1=N[C@@H]2[C@H](F)[C@H](O)[C@@H](C(F)F)O[C@@H]2S1 | 4.29 | > 10000 | 2.51 | 20 |  | 90.4 |  | 4.27 |  | 0.142 | 0.189 | 2.96 | 58.2 | 11.4 | 0.97 | 0.93 | 23 | 8 | 35.91 | 11.69 | fold change (FC) (Rattus norvegicus [24]): 2.04 |
| CNC1=N[C@@H]2[C@H](F)[C@H](O)[C@@H](CF)O[C@@H]2S1 |  | > 10000 |  | 26 |  | 60.5 |  | 2.96 |  |  |  |  | 328 |  | > 0.99 | > 0.99 | 35 |  |  |  | half-life [25]: 1.18 h; Vd [26]: 0.85 L/kg; clearance [27]: 14.4 mL/min/kg |
